From patent US20200308192A1, “NOVEL THIAZOLO[5,4-D]PYRIMIDINE DERIVATIVES AS INVERSE AGONISTS OF A2A ADENOSINE RECEPTORS” (Universita degli Studi di Ferrara, priority 2016, published 2020)
Where two headings read alike, the source gives them in different places.

What was measured:
[1] = target: T1, human adenosine A3 receptor (Homo sapiens, UniProt P0DMS8); assay: Competition binding, [125I]-ABMECA, hA3 CHO membranes; conditions: mean ± SEM
T1 construct: expressed in transfected cells; host or cells: CHO cells (membrane preparation)
T1 sequence (P0DMS8 1-318): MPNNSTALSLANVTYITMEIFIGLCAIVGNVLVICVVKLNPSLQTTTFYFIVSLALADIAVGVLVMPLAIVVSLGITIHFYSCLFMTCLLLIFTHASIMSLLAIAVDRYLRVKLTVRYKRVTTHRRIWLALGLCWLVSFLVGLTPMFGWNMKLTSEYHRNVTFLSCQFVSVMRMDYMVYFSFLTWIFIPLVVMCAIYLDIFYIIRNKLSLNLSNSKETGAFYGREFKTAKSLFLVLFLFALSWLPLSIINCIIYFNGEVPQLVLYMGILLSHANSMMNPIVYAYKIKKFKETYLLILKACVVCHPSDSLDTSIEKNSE

[2] = target: T2, human adenosine A2B receptor (Homo sapiens, UniProt P29275); assay: cAMP assay, inhibition of NECA-stimulated cAMP levels in hA2B CHO cells; conditions: read-out: Receptor hA2B IC50; cAMP stimulated by NECA (100 nM); mean ± SEM
T2 sequence (P29275 1-332): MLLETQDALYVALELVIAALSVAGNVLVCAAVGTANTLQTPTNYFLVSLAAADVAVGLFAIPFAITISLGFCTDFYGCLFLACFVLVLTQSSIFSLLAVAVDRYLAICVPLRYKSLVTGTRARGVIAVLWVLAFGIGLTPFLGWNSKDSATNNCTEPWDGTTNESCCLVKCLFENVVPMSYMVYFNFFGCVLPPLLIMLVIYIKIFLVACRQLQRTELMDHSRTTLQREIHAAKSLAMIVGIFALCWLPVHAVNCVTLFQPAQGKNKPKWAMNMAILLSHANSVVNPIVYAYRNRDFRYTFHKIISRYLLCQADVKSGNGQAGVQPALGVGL

[3] = target: T3, human adenosine A2A receptor (Homo sapiens, UniProt P29274); assay: cAMP assay in hA2A CHO cells, basal or with CGS 21680; format: cell-based; parameters: expressed in transfected cells; host or cells: CHO cells; conditions: for IC50: mean ± SEM
T3 sequence (P29274 whole entry): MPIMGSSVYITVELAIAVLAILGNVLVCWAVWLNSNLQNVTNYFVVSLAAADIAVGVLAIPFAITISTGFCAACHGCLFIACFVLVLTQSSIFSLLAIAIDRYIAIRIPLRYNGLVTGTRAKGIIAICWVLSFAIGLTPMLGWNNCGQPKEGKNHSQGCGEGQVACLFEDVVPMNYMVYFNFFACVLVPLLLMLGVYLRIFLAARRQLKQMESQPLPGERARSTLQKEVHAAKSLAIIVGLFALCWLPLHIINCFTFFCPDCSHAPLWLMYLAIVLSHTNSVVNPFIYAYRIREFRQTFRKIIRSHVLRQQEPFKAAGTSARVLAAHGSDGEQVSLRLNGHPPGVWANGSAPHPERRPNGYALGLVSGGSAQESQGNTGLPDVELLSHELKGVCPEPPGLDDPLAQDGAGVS
Description: For the membranes preparation the culture medium was removed, and the cells were washed with a saline phosphate-buffered solution collected with hypotonic buffer (5 mM Tris HCl, 1 mM EDTA, pH 7.4).
CHO cells transfected with the adenosine receptors were washed with a phosphate-buffered saline solution, detached with trypsin and centrifuged for 10 minutes at 200 g. […] The reaction was terminated by addition of cold 6% trichloroacetic acid (TCA). The TCA suspension was centrifuged at 2000 g for 10 minutes at 4° C. and the supernatant was extracted four times with diethyl ether with water. The final aqueous solution was tested for the cAMP levels by a competition protein binding assay with a cAMP-binding protein. The standard samples of cAMP (0-10 pmoli) were added to each test tube containing the incubation buffer (trizma base 0.1 M, aminophylline 8.0 mM, 2 mercaptoethanol 6.0 mM, pH 7.4) and [^3H]-cAMP. The binding protein previously prepared from beef adrenals, was added to the samples previously incubated at 4° C. for 150 minutes, and after the addition of charcoal were centrifuged at 2000 g for 10 min.
(§1) The statistical analysis of the data was performed using ANOVA followed by Dunnett's test. […] KH and KL were obtained by using a two sites binding model and Graph PAD Prism (San Diego, Calif., USA). The values of IC50 obtained in the cAMP assays were calculated by non-linear regression analysis using the equation for a sigmoid concentration-response curve. All data are expressed as the mean±SEM of four independent experiments each performed in duplicate for in vitro assays and n=8-10 mice/group for in vivo assays.

[4] = system: breast cancer cells MRMT-1; assay: Cell proliferation assay (DELFIA BrdU); format: cell-based; conditions: 48 hours; for Effect on CGS 21680-induced proliferation of cancer cells: MRMT-1, compound 100 nM pre-treatment, CGS 21680 100 nM
Description: For the experiments of cellular proliferation, the DELFIA® kit was used and a multimode plate reader Ensight® from PerkinElmer. The DELFIA® (dissociation-enhanced lanthanide fluorescence immunoassay) assay is based on Time-Resolved Fluorescence (TRF) and on the incorporation of the 5-bromo-2-deoxyuridine (BrdU) in the DNA filaments recently synthesised by the proliferating cells seeded on microplates. The incorporated BrdU is detected by using a monoclonal antibody conjugated with europium, a long-lived chelated lanthanide, and the fluorescence measured is proportional to the synthesis of DNA in the cells population present in each well. The MRMT-1 cells, breast cancer cells, were pre-treated with some of the antagonists under evaluation at the concentration of 100 nM (compounds 1, 5, 6, 7, 10 of the present invention) for 30 minutes, then stimulated with CGS 21680 100 nM and after 30 minutes the solution of BrdU (10 μl/well) was added. At the end of the incubation period of 48 hours 100 μl/well of Anti-BrdU-Eu (0.5 μg/ml) were added and the cells were incubated for 120 minutes at room temperature. After 4 washings, 200 μl of DELFIA® stimulator were added at room temperature for 15 minutes and the Eu-fluorescence was detected by means of the Ensight® reader from Perkin Elmer (Perkin Elmer, Milan, Italy).

[5] = target: T3, human adenosine A2A receptor; assay: Competition binding, [3H]-ZM 241385, hA2A CHO membranes
[6] = target: T4, human adenosine A1 receptor (Homo sapiens, UniProt P30542); assay: Competition binding, [3H]-DPCPX, hA1 CHO membranes; conditions: read-out: Receptor hA1 Ki, mean ± SEM
T4 sequence (P30542 1-326): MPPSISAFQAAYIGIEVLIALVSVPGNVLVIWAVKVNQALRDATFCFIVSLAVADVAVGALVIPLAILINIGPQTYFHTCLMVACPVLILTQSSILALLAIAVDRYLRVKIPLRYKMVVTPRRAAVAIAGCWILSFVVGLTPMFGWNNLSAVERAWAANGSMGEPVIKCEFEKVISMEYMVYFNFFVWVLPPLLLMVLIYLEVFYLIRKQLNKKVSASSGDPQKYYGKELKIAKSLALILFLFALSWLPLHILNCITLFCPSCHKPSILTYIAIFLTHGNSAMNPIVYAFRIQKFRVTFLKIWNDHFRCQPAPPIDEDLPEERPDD

Female CD1 mice [7] = assay: Writhing test (acetic acid-induced abdominal constrictions); format: in vivo; conditions: for Dose-response curve, Writhing Test: P<0.001, one-way ANOVA
Description: (§2) Female CD1 mice (22-24 g) were obtained from Charles River (Milano, Italia). The animals were kept under standard environmental temperature conditions (22±2° C.) and under moisture-controlled conditions with 12 hours light/dark cycle and food and water ad libitum. The animals were acclimated to the laboratory settings for at least 1 hour before testing and were used only once throughout the experiments. All the procedures used in the present study were carried out in accordance with the European Communities Council Directives (86/609/EEC) and the National Laws and Policies (D.L.116/92) after authorization from the Italian Ministry for Health (4/2014-B). In addition, the experimental procedures were in agreement with the current guidelines for the care of laboratory animals and the ethical guidelines for investigations of experimental pain in conscious animals (Couto M. Methods Mol Biol 2011; 770:579-599).
The acetic acid-induced writhing response was performed after intraperitoneal injection of 10 ml/Kg of 0.6% acetic acid solution. The response to the abdominal constrictions induced by acetic acid was evaluated after the intraperitoneal injection of 10 ml/kg of a 0.6% solution of acetic acid. The compounds under evaluation were dissolved in DMSO and then diluted in a saline solution. The carrier consists of saline solution and 5% of DMSO. A writhe is indicated by stretching of the abdomen followed by the extension of the hind limbs. The animals (8 mice per group) were placed singly in a glass cylinder and the number of writhing episodes of abdominal contractions was counted in a 30 minutes period. The compounds were administered intraperitoneally 15 minutes before injection of acetic acid solution.
as §1

Female CD1 mice [8] = assay: Warm-water tail immersion test; format: in vivo; conditions: intraperitoneal
Description: as §2
The warm-water tail immersion assay was performed using a water thermostated bath at a temperature maintained at 52° C. The compounds under evaluation were dissolved in DMSO and then diluted in saline solution. The carrier consists of saline solution and 5% of DMSO. Before intraperitoneally injecting the compound, the natural time of response of the mice was determined and the distal part of the tail was then immersed in the thermostated bath. The latency in responding to the heat stimulus with a vigorous flexion of the tail was measured by means of a manual stopwatch. A 20 seconds maximum cut-off time was imposed to prevent tissue damage. The latency of the tail withdrawal was then tested 15 minutes after injection of the compound.
as §1

[9] = CGS 21680 (10 nM), read-out: IC50 cAMP, in presence of CGS 21680
[10] = CGS 21680 (10 nM), read-out: Emax cAMP, in presence of CGS 21680
[11] = basal cAMP, read-out: IC50 cAMP, in absence of CGS 21680
[12] = efficacy versus basal cAMP production, read-out: Emax cAMP, in absence of CGS 21680

Compound | Ki [1] [nM] | IC50 [2] [nM] | IC50 [3, 9] [nM] | Emax [3, 10] [%] | IC50 [3, 11] [nM] | Emax [3, 12] [%] | Effect on CGS 21680-induced proliferation of cancer cells [4] | Ki [5] [nM] | Ki [6] [nM] | Effect on proliferation of cancer cells ([4]; MRMT-1, CGS 21680 100 nM) | ED50 (Female CD1 mice [7]; Mus musculus, ip, intraperitoneal, 15 minutes before acetic acid) [mg/kg] | Dose-response curve, Writhing Test (Female CD1 mice [7]) | Anti-nociceptive activity, tail immersion test (Female CD1 mice [8]) | Anti-nociceptive activity, Writhing Test (Female CD1 mice [7]; intraperitoneal)
Nc1nc(NCc2ccco2)nc2sc(-c3ccco3)nc12 [Compound 5, 2-(furan-2-yl)-N^5-(furan-2-ylmethyl)[1,3]thiazolo[5,4-d]pyrimidin-5,7-diamine] | 4.72 ± 0.38 | 82 ± 9 | 0.04 ± 0.004 | 133 ± 13 | 0.0016 ± 0.0002 | 64 | able to reduce the proliferation of cancer cells | 1.73 ± 0.15 | 38 ± 4 |  |  |  |  | 
Nc1nc(NCc2cccnc2)nc2sc(-c3ccco3)nc12 [Compound 7, 2-(furan-2-yl)-N^5-(pyridin-3-ylmethyl)[1,3]thiazolo[5,4-d]pyrimidin-5,7-diamine] | 18.2 ± 1.7 | 109 ± 11 | 0.059 ± 0.006 | 126 ± 12 | 0.011 ± 0.001 | 61 | able to reduce the proliferation of cancer cells | 0.68 ± 0.05 | 7.12 ± 0.65 |  |  |  |  | 
CCNC(=O)[C@H]1O[C@@H](n2cnc3c(N)nc(NCCc4ccc(CCC(=O)O)cc4)nc32)[C@H](O)[C@@H]1O [CGS 21680, reference compound] |  |  |  |  |  |  |  |  |  | able to increase the proliferation of the cancer cells |  |  |  | 
Nc1nc(NCc2cccs2)nc2sc(-c3ccco3)nc12 [Compound 6, 2-(furan-2-yl)-N^5-(thiophen-2-ylmethyl)[1,3]thiazolo[5,4-d]pyrimidin-5,7-diamine] | 6.43 ± 8 | 75 ± 8 | 0.036 ± 0.003 | 132 ± 12 | 0.0017 ± 0.0002 | 61 | able to reduce the proliferation of cancer cells | 3.82 ± 0.31 | 12.5 ± 1.1 |  |  |  |  | 
Nc1nc(NCCc2ccc(O)cc2)nc2nc(-c3ccco3)nn12 [ZM 241385, reference compound] | 683 ± 64 |  |  |  |  |  |  |  |  |  | 1.37 ± 0.108 | dose-dependent effect | no effect up to 10 mg/kg | 
COc1cccc(CNc2nc(N)c3nc(-c4ccco4)sc3n2)c1 [Compound 3, 2-(furan-2-yl)-N^5-(3-methoxybenzyl)[1,3]thiazolo[5,4-d]pyrimidin-5,7-diamine] | 92 ± 8 | 452 ± 42 |  |  |  |  |  | 26 ± 2 | 8.16 ± 0.72 |  |  | dose-dependent effect |  | potency similar to morphine
Nc1nc(NCCc2cccs2)nc2sc(-c3ccco3)nc12 [Compound 10, 2-(furan-2-yl)-N^5-(2-(thiophen-2-yl)ethyl)[1,3]thiazolo[5,4-d]pyrimidin-5,7-diamine] | 65 ± 6 | 112 ± 11 | 0.045 ± 0.004 | 138 ± 13 | 0.0064 ± 0.0005 | 62 | able to reduce the proliferation of cancer cells | 18 ± 2 | 4.92 ± 0.37 |  |  |  |  | 
